Assay results taken from paper PMC8429736, “Pharmacological characterization of mutant huntingtin aggregate-directed PET imaging tracer candidates” (Scientific Reports, 2021).
Read-outs that look alike come from different tables or passages of the source.

What was measured:
[1] = target: beta amyloid plaques in human AD brain sections (Homo sapiens, UniProt P05067); assay: ARG, human post-mortem AD frontal cortex sections; format: binding; settings: 1 nM radioligand
Exon1-Q46 aggregates [2] = target: T1, Exon1-Q46 aggregates (Homo sapiens, UniProt P42858, INS38QQQQQQQQQQQQQQQQQQQQQQQQQ); assay: RBA competition binding against tritiated 3, Exon1-Q46 aggregates
T1 construct: MBP-HTT(1-89)Q46-His(6x); MBP (N, cleaved yes); made in house; host or cells: E. coli BL21 (DE3)
Protocol: For the competition assay format, Q46 or Exon1-Q46 aggregates at 1 µM (sample volume 150 µL) were pre-incubated in a 96-well round bottom plate (Corning, #3365) for 20 min with test compounds at room temperature (assay buffer 50 mM Tris–HCl pH 8.0, 150 mM NaCl). […] Radioligand 3 at 0.3 nM was added and incubated for 1 h at 37 °C.
(§1) Samples were then transferred onto a 96-well GF/B filter plate (Perkin Elmer, #6005177) using a Filtermate Harvester, aspirated by vacuum and wells washed twice with 200 µL PBS. After drying the filter plates for 1 h at 55 °C the back of the plate was sealed with aluminum cover and 30 µL of scintillation fluid (Perkin Elmer, #6013641) per well was added. The tops of the plates were sealed, and the plates were incubated for 15 min in the dark and counted in a TopCount or MicroBeta2 reader (both Perkin Elmer).
Raw sample data collected as counts per minute (cpm) were normalized towards assay controls: 0% inhibition = radioligand + protein + vehicle, 100% inhibition = radioligand + protein + 1 µM unlabeled ligand. A 4-parameter […] fit was applied to generate IC50 values.

zQ175 brain homogenates = assay: Whole brain homogenate RBA saturation binding, HOM zQ175; parameters: species or system mouse; settings: HOM zQ175 12 months whole brain homogenate
Protocol: For RBA in vitro binding assays, brain tissue was sliced (50 µm), weighed and homogenized in PBS (Gibco, 14190-94), 0.1% BSA with a glass pestle (10 strokes) at a concentration of 12–15 mg wet tissue per mL buffer. The crude homogenate concentration was then adjusted to 10 mg/mL (wet tissue) and stored as single-use aliquots at -80 °C.
(§2) For saturation binding experiments, aggregate lysate preparation and final concentration in the assay, assay buffer, incubation times and plate processing were identical to the competition format. Radioligand was titrated up to 100 nM. Raw cpm were converted into nM using a calibration line of total added radioligand without washing and filtering (spiked onto the filter plate and dried) (e.g., X) and normalized to the concentration of protein (e.g., Y) to finally obtain […] (e.g., X/Y). Specific binding (SB) was calculated as full binding minus full competition (in the presence of excess unlabeled ligand) and a hyperbolic mono-phasic fit was applied using GraphPad Prism to determine Kd and Bmax.

[3] = test system: mHTT aggregates in zQ175 brain homogenates; assay: RAFTA with zQ175 brain homogenates; format: binding, mouse
Protocol: For RAFTA and MSD assays, mouse brains were transferred to lysis tubes and individually homogenized 1:3 (w/v) in brain lysis buffer (10 mM Tris pH 7.4, 800 mM NaCl, 1 mM EDTA, 1 × Protease inhibitor, 10% Sucrose, 0.5% Triton X-100, Benzonase (1:1000)) using a pre-cooled MP FastPrep homogenizer (3 × 30 s, 6.0 m/sec). Crude homogenates were transferred to LoBind reaction tubes (Eppendorf) and centrifuged at 15,700×g for 10 min at 4 °C. The supernatant was collected, and the pellet fraction was resuspended in brain lysis buffer. Generally, a minimum of three whole brains were lysed and fractions were pooled after homogenization to reduce assay variability due to inter-animal variability.
The total protein concentration of samples was determined by BCA assay (ThermoFisher Scientific, #23227), according to standard procedures and protein concentrations were adjusted to 5–10 mg/mL in brain lysis buffer. […]
For RAFTA analysis, frozen mouse brain homogenates were thawed on the day of the experiment and diluted with assay buffer (50 mM Tris pH 8.0; 150 mM NaCl) to a concentration of 500 µg/mL total protein. […] In experiments where non-specific binding (NSB) was determined, the incubation medium contained 5 µM of non-labeled (cold) CHDI-180, which was added prior to the addition of radioligand and incubated for 20 min at room temperature. […]

Exon1-Q46 aggregates [4] = target: T1, Exon1-Q46 aggregates; assay: RBA saturation binding, recombinant Exon1-Q46 aggregates
Protocol: (§3) For N-terminal tag cleavage, proteins at 30 µM in 2 mL reaction tubes were incubated with 150 µg/mL thrombin (Sigma, T4648) in 50 mM Tris (pH 8.0), 150 mM NaCl, 2 mM CaCl2 for 16 h at 37 °C.
For radioligand binding assays (RBA) (see below) and radiometric filter trap assays (RAFTA) (see below), aggregates were separated by centrifugation (5 min 16,000×g) and resuspended with assay buffer (50 mM Tris pH 8.0, 150 mM NaCl) (see Supplementary Fig. S2B). Protein concentrations always refer to the starting peptide concentrations (i.e., peptide concentration applied in the aggregation reaction before thrombin cleavage) since post-cleaved aggregates are heterogeneous and the number of peptides per aggregate is unknown.
as §1, §2

Q46 aggregates = assay: RBA saturation binding, Q46 aggregates; settings: tritiated compound; mean ± SD
Protocol: as §3
For radioligand binding assays (RBA) (see below) and radiometric filter trap assays (RAFTA) (see below), aggregates were separated by centrifugation (5 min 16,000×g) and resuspended with assay buffer (50 mM Tris pH 8.0, 150 mM NaCl) (see Supplementary Fig. S2B). […]
Samples were then transferred onto a 96-well GF/B filter plate (Perkin Elmer, #6005177) using a Filtermate Harvester, aspirated by vacuum and wells washed twice with 200 µL PBS. […] The tops of the plates were sealed, and the plates were incubated for 15 min in the dark and counted in a TopCount or MicroBeta2 reader (both Perkin Elmer).
For saturation binding experiments, aggregate lysate preparation and final concentration in the assay, assay buffer, incubation times and plate processing were identical to the competition format. […] Specific binding (SB) was calculated as full binding minus full competition (in the presence of excess unlabeled ligand) and a hyperbolic mono-phasic fit was applied using GraphPad Prism to determine Kd and Bmax.

T1 sequence (P42858 with tags, fused parts or gaps with the stated changes): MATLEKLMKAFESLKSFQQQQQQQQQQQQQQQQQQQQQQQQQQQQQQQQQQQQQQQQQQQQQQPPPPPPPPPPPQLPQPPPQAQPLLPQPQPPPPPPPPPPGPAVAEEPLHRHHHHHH
beta amyloid plaques in human AD brain sections, sequence (P05067 672-713 limits assumed): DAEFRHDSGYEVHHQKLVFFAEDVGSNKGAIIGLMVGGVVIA

Question: What does the source list for `COc1ccc(COc2ccc3oc(-c4ccc(=O)n(C)n4)nc3c2)nc1` [CHDI-180]?
Answer: binding in AD post-mortem brain tissues [1]: 5.6 ± 0.7 fmol/mg; binding in AD post-mortem brain tissues ([1]; gray matter): 5.6 ± 0.7 fmol/mg tissue; IC50 (Exon1-Q46 aggregates [2]; 0.3 nM tritiated 3 as radioligand, 1 µM aggregates, mean ± SD, read-out: IC50 Exon1-Q46): 1.3 ± 0.7 nM; Hill Slope (Exon1-Q46 aggregates [2]; against tritiated 3, representative single experiment (Fig. 2B)): 0.89; IC50 (Exon1-Q46 aggregates [2]; against tritiated 3, representative single experiment (Fig. 2B), read-out: IC50): 1.4 nM; Kd (zQ175 brain homogenates): 2.4 nM; RBA Bmax (zQ175 brain homogenates; per mg tissue): 34.0 fmol/mg; signal in pelleted material vs age-matched WT mice ([3]; 3 nM radioligand, cortices, striata or hippocampi of 9-month-old HET zQ175): > tenfold; binding in brain homogenates with age ([3]; 3-, 6-, 9-, 12-month-old HOM zQ175): age-dependent increase; Bmax (Exon1-Q46 aggregates [4]; representative single experiment (Fig. 2A)): 0.3 nmol/μmol; Kd (Exon1-Q46 aggregates [4]; representative single experiment (Fig. 2A), read-out: Kd): 3.2 nM; Kd (Exon1-Q46 aggregates [4]; tritiated compound, mean ± SD, read-out: Kd Exon1-Q46): 2.6 ± 0.9 nM; Kd (Q46 aggregates): 7.7 ± 3.3 nM
